Measured values as given in patent EP3355943B1, “METHODS AND SYSTEMS FOR TREATING MEDICAL DEVICES AND FLUIDS” (Ethicon, Inc., priority 2015, dated 2017).
Where “and” joins values, the source holds several entries; their conditions need not be identical. Equal entries are not always repeated. Where two headings read alike, the source gives them in different places.

Assays:
[1] = assay type: in vivo; conditions: female rats, observed 4 days
Experimental: An animal study was conducted with 30 female rats with weights ranging from 250-300g and acclimated for 5 days. All rats were dosed with intraperitoneal injections using 18 gauge needles. The rats were broken into 6 groups. A negative control (NC-1) dosed 5 rats with 5mL of normal saline solution. […] A positive control (PC-1) dosed 5 rats with 2.5 million EU in a 5mL saline solution. A second positive control (PC-2) was conducted dosing 5 rats with 5 million endotoxin units in a 5mL normal saline solution. Two experimental test groups were conducted.
The negative control samples also had no toxicity. Table 21. Results of animal study with CaSt dosing

[2] = Suture testing in ethanol, cyclohexane, isopropanol with 1% calcium stearate; assay type: biochemical; conditions: for Change in Endotoxin Level (%): vs. Suture-1 not submerged (68.1 EU)
Experimental: Similarly to the testing above, an absorbable suture of the same type, similarly contaminated, was exposed to CaSt in three solvents (ethanol, cyclohexane, isopropanol). The suture was then tested for LPS.
Sutures used were 27 inch long pieces of absorbable lactide-glycolide sutures. […] 7 strands of suture were placed in tubing with endotoxin solution for 10 minutes at a time. The sutures were dried for 20 minutes and then placed in round bottom tubes. […] 1 suture was placed in each tube and vortexed in this solution for approximately 10 seconds. The sutures were removed and allowed to dry for 20 minutes and then placed in round bottom tubes. This was done for 6 sutures. 1 piece of suture, serving as the control, was not submerged in any solutions and placed in test tubes. 3 mL of LAL reagent water was added to each test tube, vortexed vigorously, and then placed in a hot water bath at 37°C for 1 hour. They were then removed, vortexed vigorously, diluted, and tested on the MCS system. […] Results of testing in ethanol, cyclohexane, isopropanol

[3] = Endotoxin removal by sonicated CaSt suspension stored 1 month; assay type: biochemical; conditions: listed as CaSt suspension; for Percent Endotoxin Removal(15 min/30 min): sonicated suspension stored 1 month
Experimental: 10 ml of LRW water (LAL reagent water, contains no endotoxin) containing 0.04 g of CaSt suspension was sonicated using Misonix Probe Sonicator, Model: S-4000, Amplitude: 30, Time: 30 seconds and then the suspension was stored for 1 month at ambient temperature. Then 1 ml of the above suspension was added to 10 ml endotoxin containing water SRW and the resulting endotoxin concentrations in the combined solution measured after 15 min and 30 min, with the results presented in Table 14.

[4] = Effect of storage (dwell time) on efficacy of pre-mixed CaSt suspensions, sonicated or vortexed; assay type: biochemical; conditions: 0.02 g CaSt; for EU After: 15 minutes
Experimental: Efficacy of pre-mixed CaSt suspensions (sonicated and vortexed) was tested, comparing efficacy of immediately prepared suspensions with suspensions having shelf life or dwell time of 90 min, 5 days, and 1 month prior to contact with endotoxin containing solutions.
10 mL SRW was then introduced to the sonicated CaSt mixture. It was then vortexed for 5 seconds to fully incorporate the sonicated CaSt. The mixture was then tested after 15 minutes of interaction to measure the percent decrease of endotoxin.
10 mL SRW was then introduced to the vortexed CaSt mixture. It was then vortexed for 5 seconds to fully incorporate the sonicated CaSt. The mixture was then tested after 15 minutes of interaction to measure the percent decrease of endotoxin.
These mixtures were then tested on the Charles River MCS at a dilution of 1:2000 after 15 minutes of interaction.
Testing of suspensions having shelf life or dwell time of 90 min, 5 days, and 1 month prior to contact with endotoxin containing solutions.
Test samples were prepared as described above, sonicated and vortexed, but were subjected to shelf life or dwell time of 90 min, 5 days, and 1 month prior to contact with endotoxin containing solution (SRW). After dwell time exposure, similarly to the immediate mixing test above, 10 mL SRW was then introduced to the sonicated or vortexed CaSt mixture. It was then vortexed for 5 seconds to fully incorporate the sonicated CaSt. The mixture was then tested after 15 minutes of interaction to measure the percent decrease of endotoxin. These mixtures were then tested on the Charles River MCS at a dilution of 1:2000 after 15 minutes of interaction.
*The 1 month shelf life sample was only tested at 0.04g CaSt and measured the percent removal after 15 minutes of interaction as well as 30 minutes after interaction.

[5] = suture submerged in Cyclohexane w/1% Calcium Stearate (0.0858 g)
[6] = suture submerged in Ethanol w/1% Calcium Stearate (0.0827 g)
[7] = suture submerged in Isopropanol w/1% Calcium Stearate (0.0841 g)

CCCCCCCCCCCCCCCCCC(=O)O [Calcium Stearate]
Results (toxicity) ([1]; NC-2: 0.2 g Calcium Stearate in 5.0 mL normal saline, intraperitoneal, no endotoxin): No Toxicity Observed
Results (toxicity) ([1]; T-1: 2,500,000 EU + 0.2g Calcium Stearate + normal saline (5.0 mL) dosed IP): No Toxicity Observed
Results (toxicity) ([1]; T-1: 2,500,000 EU + 0.2g Calcium Stearate + normal saline (5.0 mL) dosed IP, listed as calcium stearate): no toxicity or adverse effects
Results (toxicity) ([1]; T-2: 5,000,000 EU + 0.2g Calcium Stearate + normal saline (5.0 mL) dosed IP): No Toxicity Observed
Results (toxicity) ([1]; T-2: 5,000,000 EU + 0.2g Calcium Stearate + normal saline (5.0 mL) dosed IP, listed as calcium stearate): no toxicity or adverse effects
LPS activity decreased by ([2]; CaSt 1% suspension in ethanol, cyclohexane, isopropanol): 75-95%
Endotoxin Detected (EU) [2, 5]: 4.02 EU
Change in Endotoxin Level (%) [2, 5]: -94.1%
Endotoxin Detected (EU) [2, 6]: 15.06 EU
Change in Endotoxin Level (%) [2, 6]: -77.9%
Endotoxin Detected (EU) [2, 7]: 16.59 EU
Change in Endotoxin Level (%) [2, 7]: -75.6%
Endotoxin EU/mL (15 min after addition of CaSt suspension) ([3]; 0.04 g CaSt in 10 ml LRW sonicated, stored 1 month, added to SRW, initial 732.5 EU/mL, 15 min): 372 EU/mL and 362 EU/mL
Endotoxin EU/mL (30 min after addition of CaSt suspension) ([3]; 0.04 g CaSt in 10 ml LRW sonicated, stored 1 month, added to SRW, initial 732.5 EU/mL, 30 min): 384 EU/mL and 278 EU/mL
Percent Endotoxin Removal(15 min/30 min) ([3]; 15 min): 49.2% and 50.6%
Percent Endotoxin Removal(15 min/30 min) ([3]; 30 min): 47.6% and 62.0%
Average Percent Change ([4]; Sonicated, 5 Day dwell time): 76%
Percent Endotoxin Removed ([4]; Sonicated, 5 Day dwell time): 76%
EU After ([4]; Sonicated, 5 Day dwell time, EU Before 37,800): 9,200 EU
Average Percent Change ([4]; Sonicated, 90 min dwell time): 61%
EU After ([4]; Sonicated, 90 min dwell time, EU Before 36,100, listed as Aged Sonicated CaSt #1): 15120 EU
EU After ([4]; Sonicated, 90 min dwell time, EU Before 36,100, listed as Aged Sonicated CaSt #2): 12,960 EU
Percent Endotoxin Removed ([4]; Sonicated, 90 min dwell time, listed as Aged Sonicated CaSt #1): 58%
Percent Endotoxin Removed ([4]; Sonicated, 90 min dwell time, listed as Aged Sonicated CaSt #2): 64%
Average Percent Change ([4]; Sonicated, Immediate Mixing): 74%
EU After ([4]; Sonicated, Immediate Mixing, EU Before 36,100, listed as Sonicated CaSt #1): 8,960 EU
EU After ([4]; Sonicated, Immediate Mixing, EU Before 36,100, listed as Sonicated CaSt #2): 10,240 EU
Percent Endotoxin Removed ([4]; Sonicated, Immediate Mixing, listed as Sonicated CaSt #1): 75%
Percent Endotoxin Removed ([4]; Sonicated, Immediate Mixing, listed as Sonicated CaSt #2): 72%
Average Percent Change ([4]; Vortexed, 5 Day dwell time): 64%
EU After ([4]; Vortexed, 5 Day dwell time, EU Before 37,800, listed as Aged Vortexed CaSt #3): 15,120 EU
EU After ([4]; Vortexed, 5 Day dwell time, EU Before 37,800, listed as Aged Vortexed CaSt #4): 12,160 EU
Percent Endotoxin Removed ([4]; Vortexed, 5 Day dwell time, listed as Aged Vortexed CaSt #3): 60%
Percent Endotoxin Removed ([4]; Vortexed, 5 Day dwell time, listed as Aged Vortexed CaSt #4): 68%
Average Percent Change ([4]; Vortexed, 90 min dwell time): 43%
EU After ([4]; Vortexed, 90 min dwell time, EU Before 36,100, listed as Aged Vortexed CaSt #1): 22,400 EU
EU After ([4]; Vortexed, 90 min dwell time, EU Before 36,100, listed as Aged Vortexed CaSt #2): 19280 EU
Percent Endotoxin Removed ([4]; Vortexed, 90 min dwell time, listed as Aged Vortexed CaSt #1): 38%
Percent Endotoxin Removed ([4]; Vortexed, 90 min dwell time, listed as Aged Vortexed CaSt #2): 47%
